From patent US20250051390A1, “NOVEL ADIPONECTIN-DERIVED PEPTOID DERIVATIVE AND USE THEREOF” (SEOUL NATIONAL UNIVERSITY HOSPITAL, priority 2021, published 2025) come the findings set out here.

Structures are written as SMILES. Where only a bound is given, the exact number is not on record here.

The subject of one series is AMPK phosphorylation. Kind of series: AMPK phosphorylation activity in mouse adipocytes (Western blot). Type of series: cell-based. The settings on record: 3T3-L1, 10 μM, 24 hours, Western blot; APN5 = 1.0. On the procedure:
There were confirmed effects of the peptoid derivative of the present disclosure on the expression and receptor activity of adiponectin in mouse adipocytes as a main adiponectin production site. A mouse adipocyte cell line 3T3-L1 was treated with each of the peptoid derivatives of the present disclosure at a concentration of 10 μM and cultured for 24 hours, and then cells were obtained. Thereafter, the protein was extracted and the effect of adiponectin on AMPK phosphorylation, which was responsible for the main downstream signaling, was confirmed by Western blot.
A general note: In western blotting, separated proteins are transferred to a membrane and probed.

Another series addresses T1, CYP1A2 (Homo sapiens, UniProt P05177).
T1 sequence (P05177 1-516): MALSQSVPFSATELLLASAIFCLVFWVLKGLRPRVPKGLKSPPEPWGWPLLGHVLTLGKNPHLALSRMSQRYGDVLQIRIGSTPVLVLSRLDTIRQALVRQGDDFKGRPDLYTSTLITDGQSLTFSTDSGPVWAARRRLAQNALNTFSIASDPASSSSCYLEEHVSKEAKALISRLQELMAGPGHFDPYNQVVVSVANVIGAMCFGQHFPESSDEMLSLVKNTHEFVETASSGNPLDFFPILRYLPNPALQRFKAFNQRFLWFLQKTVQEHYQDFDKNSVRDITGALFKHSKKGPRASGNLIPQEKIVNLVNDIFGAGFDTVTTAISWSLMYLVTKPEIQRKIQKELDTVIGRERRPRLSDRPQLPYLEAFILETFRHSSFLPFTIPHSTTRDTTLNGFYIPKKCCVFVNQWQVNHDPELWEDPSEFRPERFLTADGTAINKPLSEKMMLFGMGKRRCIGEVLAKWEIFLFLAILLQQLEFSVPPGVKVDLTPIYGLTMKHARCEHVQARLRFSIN
Kind of series: CYP inhibition assay, CYP1A2. The settings on record: human liver microsomes 0.25 mg/ml, 10 μM, 15 minutes. The method, then: (§1) Metabolites of each CYP isoenzyme indicator drug produced through the reaction were analyzed by LC-MS/MS using the Shimadzu Nexera XR system and TSQ vantage (Thermo).
For orientation: Liver microsomes are a subcellular fraction often used to study metabolism.

In another series the target is CYP2C19 (Homo sapiens, UniProt P33261). In words: CYP inhibition assay, CYP2C19. The settings on record: human liver microsomes 0.25 mg/ml, 10 μM, 15 minutes. On the procedure: as §1
The target in another series is CYP2D6 (Homo sapiens, UniProt P10635). Kind of series: CYP inhibition assay, CYP2D6. The settings on record: human liver microsomes 0.25 mg/ml, 10 μM, 15 minutes. The method, then: as §1
For a further series, the target named is CYP3A4 (Homo sapiens, UniProt P08684). In words: CYP inhibition assay, CYP3A4. Particulars: human liver microsomes 0.25 mg/ml, 10 μM, 15 minutes. On the procedure: as §1
In the next series the target is CYP2C9 (Homo sapiens, UniProt P11712). Kind of series: CYP inhibition assay, CYP2C9. Particulars: human liver microsomes 0.25 mg/ml, 10 μM, 15 minutes. The method, then: as §1
The next series is described as follows: Solubility test. The settings on record: test buffer pH 7.4, DMSO test standard solution, room temperature 24 hours, n=3.
The nature of series [1]: Plasma stability test, rat plasma. The settings on record: 1 μM, 37° C.
Experimental: (§2) The peptoid derivative of the present disclosure was added at a concentration of 1 μM to two types of plasma (human, rat), placed in each tube, and then cultured at 37° C. for time of 0, 30, 60, 120, and 240 minutes. The tube containing plasma was taken out every time, added with an acetonitrile solution containing an internal standard material (chlorpropamide), vortexed for 5 minutes, and centrifuged for 5 minutes (14,000 rpm, 4° C.). Thereafter, the plasma stability of the peptoid derivative was evaluated by injecting the supernatant into an LC-MS/MS system and analyzing the drug at each time period. At this time, Procaine and Enalapril were used as reference materials for accuracy during a general plasma stability test.
(§3) After the reaction, the amount of drug remaining in each tube was analyzed by LC-MS/MS using Shimadzu Nexera XR system and TSQ vantage (Thermo). The HPLC column was used with a Luna C18 column (2.0×50 mm, 3 μm particle size; Phenomenex, US), and the mobile phase was distilled water (A) containing 0.1% formic acid and acetonitrile (B) containing 0.1% formic acid. Data analysis was performed using Xcalibur (version 1.6.1). In the result analysis, the plasma stability of each peptoid derivative was expressed as % remaining for each time period for the sample without culture.
Series [2] can be described thus: Plasma stability test, human plasma. Particulars: 1 μM, 37° C.
Experimental: as §2, §3
Series [3] can be described thus: Metabolic stability test, rat liver microsomes. Particulars: rat liver microsomes 0.5 mg/ml, 1 μM, NADPH, 37° C.
Experimental: (§4) Three types of liver microsomes (Human, Rat, Mouse, 0.5 mg/ml), a 0.1 M phosphate buffer solution (pH 7.4), and the peptoid derivative of the present disclosure were added at a concentration of 1 μM and pre-cultured at 37° C. for 5 minutes, and then added with an NADPH Regeneration system solution and cultured at 37° C. for 30 minutes. Thereafter, to terminate the reaction, the mixture was added with an acetonitrile solution containing an internal standard material (chlorpropamide), centrifuged for 5 minutes (14,000 rpm, 4° C.), and then the supernatant was injected into the LC-MS/MS system to analyze a substrate drug, and thus metabolic stability was evaluated.
(§5) The amount of substrate remaining through the reaction was analyzed by LC-MS/MS using Agilent 1290 infinity series pump system (Agilent, USA) and Triple Quad 5500 LC-MS/MS system (Applied Biosystems, USA). The HPLC column was used with a Kinetex C18 column (2.1×100 mm, 1.7 μm particle size; Phenomenex, USA), and the mobile phase was distilled water (A) containing 0.1% formic acid and acetonitrile (B) containing 0.1% formic acid. TurboSpray Ionization was used as an ion source for MS/MS, and a triple quadruple type was used as a mass spectrometer. The produced metabolites were quantified using a multiple reaction monitoring (MRM) quantitative mode, and data analysis was performed using Analyst software (version 1.6.1).
Series [4] can be described thus: Metabolic stability test, human liver microsomes. Particulars: human liver microsomes 0.5 mg/ml, 1 μM, NADPH, 37° C.
Experimental: as §4
The HPLC column was used with a Kinetex C18 column (2.1×100 mm, 1.7 μm particle size; Phenomenex, USA), and the mobile phase was distilled water (A) containing 0.1% formic acid and acetonitrile (B) containing 0.1% formic acid. TurboSpray Ionization was used as an ion source for MS/MS, and a triple quadruple type was used as a mass spectrometer. The produced metabolites were quantified using a multiple reaction monitoring (MRM) quantitative mode, and data analysis was performed using Analyst software (version 1.6.1).
A short description of series [5]: Metabolic stability test, mouse liver microsomes. Particulars: mouse liver microsomes 0.5 mg/ml, 1 μM, NADPH, 37° C.
Experimental: as §4, §5

Chain of CYP2C19 (P33261 whole entry): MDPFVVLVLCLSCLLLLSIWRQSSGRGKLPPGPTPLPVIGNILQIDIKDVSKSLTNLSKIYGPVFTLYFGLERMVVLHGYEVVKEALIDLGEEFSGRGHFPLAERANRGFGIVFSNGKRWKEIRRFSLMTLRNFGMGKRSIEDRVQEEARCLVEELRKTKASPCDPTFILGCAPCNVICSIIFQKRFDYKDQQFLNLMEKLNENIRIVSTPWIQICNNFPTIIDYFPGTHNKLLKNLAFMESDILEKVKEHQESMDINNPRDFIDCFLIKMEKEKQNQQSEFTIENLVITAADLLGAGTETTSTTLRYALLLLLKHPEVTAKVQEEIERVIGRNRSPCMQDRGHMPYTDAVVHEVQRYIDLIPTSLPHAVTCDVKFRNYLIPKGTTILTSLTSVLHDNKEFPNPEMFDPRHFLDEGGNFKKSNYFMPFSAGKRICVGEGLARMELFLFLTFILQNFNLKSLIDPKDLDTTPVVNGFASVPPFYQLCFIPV
Chain of CYP2C9 (P11712 whole entry): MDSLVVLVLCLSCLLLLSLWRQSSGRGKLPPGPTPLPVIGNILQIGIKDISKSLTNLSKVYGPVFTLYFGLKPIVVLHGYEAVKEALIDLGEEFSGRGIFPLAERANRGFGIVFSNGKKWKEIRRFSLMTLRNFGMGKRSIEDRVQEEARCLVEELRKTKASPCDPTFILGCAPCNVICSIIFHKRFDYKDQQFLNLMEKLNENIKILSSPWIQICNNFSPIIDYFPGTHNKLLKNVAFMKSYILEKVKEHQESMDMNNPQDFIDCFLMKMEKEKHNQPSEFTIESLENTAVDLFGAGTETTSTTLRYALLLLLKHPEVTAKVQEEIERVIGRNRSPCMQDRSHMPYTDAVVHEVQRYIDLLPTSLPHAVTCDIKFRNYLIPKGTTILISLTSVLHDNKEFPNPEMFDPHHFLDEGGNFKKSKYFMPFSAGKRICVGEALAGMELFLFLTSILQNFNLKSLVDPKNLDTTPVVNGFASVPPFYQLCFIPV
Chain of CYP2D6 (P10635 whole entry): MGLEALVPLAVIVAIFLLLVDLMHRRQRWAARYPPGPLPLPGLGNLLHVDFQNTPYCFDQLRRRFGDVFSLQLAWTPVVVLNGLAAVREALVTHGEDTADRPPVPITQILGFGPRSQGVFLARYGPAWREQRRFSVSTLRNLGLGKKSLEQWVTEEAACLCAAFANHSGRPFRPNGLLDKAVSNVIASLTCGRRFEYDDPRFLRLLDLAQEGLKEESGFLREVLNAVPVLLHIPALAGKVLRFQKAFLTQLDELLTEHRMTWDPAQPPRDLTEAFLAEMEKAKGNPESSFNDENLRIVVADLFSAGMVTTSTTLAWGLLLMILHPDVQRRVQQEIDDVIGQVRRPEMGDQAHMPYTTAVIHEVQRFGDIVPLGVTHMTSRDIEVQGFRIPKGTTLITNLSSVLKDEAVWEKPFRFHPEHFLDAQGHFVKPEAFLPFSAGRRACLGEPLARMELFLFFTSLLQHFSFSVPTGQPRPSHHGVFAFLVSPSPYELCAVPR
Chain of CYP3A4 (P08684 whole entry): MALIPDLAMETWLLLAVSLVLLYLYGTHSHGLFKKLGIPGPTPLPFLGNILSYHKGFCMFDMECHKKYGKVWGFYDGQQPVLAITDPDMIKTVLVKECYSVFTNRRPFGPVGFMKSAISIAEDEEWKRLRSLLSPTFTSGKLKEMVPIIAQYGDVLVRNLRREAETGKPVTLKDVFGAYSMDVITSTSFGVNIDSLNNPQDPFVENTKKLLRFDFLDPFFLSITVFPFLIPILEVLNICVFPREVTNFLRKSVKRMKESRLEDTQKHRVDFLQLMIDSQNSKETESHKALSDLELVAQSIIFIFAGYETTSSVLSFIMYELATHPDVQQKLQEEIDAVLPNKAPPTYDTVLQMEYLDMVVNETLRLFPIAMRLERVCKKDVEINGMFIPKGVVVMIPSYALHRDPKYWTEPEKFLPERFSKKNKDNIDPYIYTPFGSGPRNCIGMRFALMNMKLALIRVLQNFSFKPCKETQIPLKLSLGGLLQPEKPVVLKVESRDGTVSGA
Experimental for Solubility test: A PRISMA HT solution was diluted in distilled water at a ratio of 1:40, and then used as a test buffer by adjusting the pH to 7.4.
10 mL of the prepared test material was diluted in 190 μL of isopropyl alcohol and prepared. In addition, 75 mL of the test solution and 70 mL of isopropyl alcohol were mixed to be used as a blank sample, and 5 mL of the test material diluted in isopropyl alcohol was added to the blank sample. After the diluted sample was mixed, the absorbance was measured and used as an initial test value. […] Thereafter, the precipitate was removed from the sample using a filter plate, 74 mL of the filtered sample was added with 75 mL of isopropyl alcohol, and then the absorbance was measured and used as the sample value.
The solubility value of the test material was analyzed using a msol Explore (Solubility explorer program) after measuring the absorbance of each sample through a microplate reader. The average and standard deviation of the experimental values (n=3) repeated three times were calculated using the Excel program.

Turning to `CC(C)C[C@H](NC(=O)CN)C(=O)N[C@@H](Cc1ccc(O)cc1)C(=O)N[C@@H](Cc1ccc(O)cc1)C(=O)N[C@@H](Cc1ccccc1)C(=O)O` [APN5, NH2-GLYYF-OH], the “AMPK phosphorylation activity (fold change)” value with AMPK phosphorylation is on record as 1.0 fold change. Moreover, the “CYP inhibition (% of control activity) CYP1A2” value at CYP1A2 was 88.8 % of control activity. For the same compound, the “CYP inhibition (% of control activity) CYP2C19” value at CYP2C19 is given as 98.5 % of control activity. For the same compound, the “CYP inhibition (% of control activity) CYP2D6” value at CYP2D6 is on record as 92.3 % of control activity. In addition, on CYP3A4, the “CYP inhibition (% of control activity) CYP3A4” value was 82.9 % of control activity.

Regarding `O=C(COc1ccc(C(=O)c2ccccc2)cc1)NC1CCN(Cc2ccccc2)CC1` [DS-43, adiporon], in the series with AMPK phosphorylation, the “AMPK phosphorylation activity (fold change)” value is recorded as 1.2 fold change. Moreover, at CYP2C9, the “CYP inhibition (% of control activity) CYP2C9” value is 57.8 % of control activity. The “CYP inhibition (% of control activity) CYP2C19” value on CYP2C19 was 66.0 % of control activity. In the series “Solubility test”, the “Average DMSO solubility” value was 0.0437 mg/mL. Further, the “Plasma stability (% remaining) Rat, 30 m” value in [1] (30 m) was more than 100 % remaining. In addition, the “Plasma stability (% remaining) Rat, 120 m” value in series [1] (120 m) is more than 100 % remaining. Moreover, the “Plasma stability (% remaining) Human, 30 m” value in [2] (30 m) is given as more than 100 % remaining. For the same compound, in series [2] (120 m), the “Plasma stability (% remaining) Human, 120 m” value was more than 100 % remaining. Further, in series [3], the “Metabolic stability (% remaining) Rat, 30 m” value was 2.3 % remaining. The “Metabolic stability (% remaining) Human, 30 m” value in [4] is 54.9 % remaining. Moreover, in series [5], the “Metabolic stability (% remaining) Mouse, 30 m” value came out at 3.1 % remaining.
